Data as given in patent US8883963B2 (Cadila Healthcare Limited, priority 2007, dated 2014).
Starred links: 1 amine or outer side, 2 acyl side, 3 side chain; linkers in the order of their positions; H or OH if unused. Non-standard residues stand in square brackets, D forms with d. Residues, ends and D or L forms follow the SMILES beside them. ξ: configuration not given here. Leu(5,5,5,5',5',5'-F6) = N[C@@H](CC(C(F)(F)F)C(F)(F)F)C(=O)O; ξBip(2'-Et-4'-OMe) = CCc1cc(OC)ccc1-c1ccc(CC(N)C(=O)O)cc1; X1 = O=C(C(CCCc1ccc(C(F)(F)F)cc1F)N[*:1])[*:2]; ξNva(5-(3-Cl-Ph)) = NC(CCCc1cccc(Cl)c1)C(=O)O; ξbishPhe(2-F) = NC(CCCc1ccccc1F)C(=O)O; ξαMePhe(2-F) = CC(N)(Cc1ccccc1F)C(=O)O; Aib = CC(C)(N)C(=O)O

Key:
[1] = Stability in liver microsomes; format: in vitro ADME; conditions: 2 μM peptidomimetic, human liver microsomes, 37° C.; for half-life at 2 μM: pH 7.8, read-out: half-life (t1/2) when incubated with liver microsomes
Method: (§1) Reactions were terminated by the addition of TFA/H2O (15 mL, 10% (v/v)). […] The column was equilibrated with TFA/H20, at a flow rate of 1 mL/min.

[2] = Stability in human plasma; format: in vitro ADME; conditions: 2 μM peptidomimetic, pooled human plasma, 37° C.; for half-life at 2 μM: pH 7.8, read-out: half-life (t1/2) when incubated with human plasma
Method: as §1

[3] = molecular target: T1, human glucagon receptor (Homo sapiens, UniProt P47871); test: In vitro human glucagon antagonist activity (inhibition of cAMP production) in CHO/human glucagon R cells; format: cell-based; conditions: with saturated concentration of glucagon peptide
T1 construct: The full-length cDNA was cloned in pcDNA3.1 (Invitrogen); expressed in transfected cells

[4] = Stability in simulated intestinal fluid; format: in vitro ADME; conditions: 2 μM peptidomimetic, simulated intestinal fluid pH 7.5, 37° C.; for half-life at 2 μM: read-out: half-life (t1/2) when incubated with simulated intestinal fluid
Method: as §1

[5] = Stability in simulated gastric fluid; format: in vitro ADME; conditions: 2 μM peptidomimetic, simulated gastric fluid pH 1.5, 37° C.; for half-life at 2 μM: read-out: half-life (t1/2) when incubated with simulated gastric fluid
Method: as §1

[6] = molecular target: DPP IV (Homo sapiens, UniProt P27487); test: Stability against DPP IV enzyme; format: in vitro ADME; conditions: 37° C.; for % degradation of peptidomimetics in 24 h when incubated with DPP-IV enzyme: 2 μM peptidomimetic; for half-life at 2 μM: DPP IV enzyme, pH 7.8, 2 μM peptidomimetic, read-out: half-life (t1/2) when incubated with DPP-IV enzyme
Method: as §1

DPP IV, sequence (P27487 whole entry, species assumed): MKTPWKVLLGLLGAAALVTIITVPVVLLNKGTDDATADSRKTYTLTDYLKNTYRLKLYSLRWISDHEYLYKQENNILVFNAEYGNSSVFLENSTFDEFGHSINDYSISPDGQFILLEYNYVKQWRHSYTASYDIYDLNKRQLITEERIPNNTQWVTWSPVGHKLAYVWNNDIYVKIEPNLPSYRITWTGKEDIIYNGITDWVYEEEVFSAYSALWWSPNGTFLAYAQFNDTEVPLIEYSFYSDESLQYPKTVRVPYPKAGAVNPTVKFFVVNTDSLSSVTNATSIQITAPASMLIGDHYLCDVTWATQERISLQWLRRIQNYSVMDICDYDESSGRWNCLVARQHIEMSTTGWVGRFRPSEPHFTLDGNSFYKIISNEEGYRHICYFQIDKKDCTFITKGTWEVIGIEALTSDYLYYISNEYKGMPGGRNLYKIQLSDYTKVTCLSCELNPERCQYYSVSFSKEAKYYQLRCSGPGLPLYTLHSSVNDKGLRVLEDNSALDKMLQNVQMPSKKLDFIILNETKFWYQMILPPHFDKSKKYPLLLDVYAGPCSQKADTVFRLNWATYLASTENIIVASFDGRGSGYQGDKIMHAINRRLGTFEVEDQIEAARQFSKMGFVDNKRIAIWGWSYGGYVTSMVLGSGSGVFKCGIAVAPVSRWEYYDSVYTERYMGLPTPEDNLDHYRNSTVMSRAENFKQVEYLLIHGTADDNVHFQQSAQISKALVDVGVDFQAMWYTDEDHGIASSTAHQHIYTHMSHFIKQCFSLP
T1 sequence (P47871 26-477): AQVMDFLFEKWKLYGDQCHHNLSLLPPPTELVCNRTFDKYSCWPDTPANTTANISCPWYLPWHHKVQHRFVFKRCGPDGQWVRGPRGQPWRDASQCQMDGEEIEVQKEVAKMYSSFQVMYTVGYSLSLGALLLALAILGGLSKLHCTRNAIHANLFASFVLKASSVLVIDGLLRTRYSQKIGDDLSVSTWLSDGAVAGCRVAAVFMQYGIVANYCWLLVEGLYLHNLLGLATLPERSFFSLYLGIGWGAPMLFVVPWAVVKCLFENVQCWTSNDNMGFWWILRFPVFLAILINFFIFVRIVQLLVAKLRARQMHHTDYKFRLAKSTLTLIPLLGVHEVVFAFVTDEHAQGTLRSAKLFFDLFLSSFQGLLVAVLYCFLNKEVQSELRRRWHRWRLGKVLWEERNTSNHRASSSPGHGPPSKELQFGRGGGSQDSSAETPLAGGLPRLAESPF

Row | SMILES | % degradation of peptidomimetics in 24 h when incubated with liver microsomes [1] | half-life at 2 μM [1] | half-life (t1/2) when incubated with human plasma [2] | % degradation of peptidomimetics in 24 h when incubated with human plasma [2] | Human Glucagon receptor antagonistic activity shown as inhibition of cAMP production of Glucagon peptide ([3]; 1 nM test compound) | Human Glucagon receptor antagonistic activity shown as inhibition of cAMP production of Glucagon peptide ([3]; 10 nM test compound) | Human Glucagon receptor antagonistic activity shown as inhibition of cAMP production of Glucagon peptide ([3]; 100 nM test compound) | Human Glucagon receptor antagonistic activity shown as inhibition of cAMP production of Glucagon peptide ([3]; 1 μM test compound) | Human Glucagon receptor antagonistic activity shown as inhibition of cAMP production of Glucagon peptide ([3]; 10 μM test compound) | % degradation of peptidomimetics in 24 h when incubated with simulated intestinal fluid [4] | half-life at 2 μM [4] | % degradation of peptidomimetics in 24 h when incubated with simulated gastric fluid [5] | half-life at 2 μM [5] | % degradation of peptidomimetics in 24 h when incubated with DPP-IV enzyme [6] | half-life at 2 μM [2] | half-life (t1/2) when incubated with simulated intestinal fluid [4] | half-life (t1/2) when incubated with simulated gastric fluid [5] | half-life at 2 μM [6] | half-life (t1/2) when incubated with liver microsomes [1]
1 | CCc1cc(OC)ccc1-c1ccc(CC(NC(=O)[C@H](CC(=O)O)NC(=O)[C@H](CO)NC(=O)[C@@H](NC(=O)C(C)(Cc2ccccc2F)NC(=O)[C@@H](NC(=O)CNC(=O)C(CCC#N)NC(=O)C(C)(C)NC(=O)[C@H](Cc2c[nH]cn2)NC(=O)OC)[C@@H](C)O)[C@@H](C)O)C(=O)NC(CCCc2ccccc2F)C(N)=O)cc1 (single isomer, unassigned) [compound 208] | 100% | 30 min | (9) h | 78% | 5 ± 0.04 pmol/ml/μg prt | 3 ± 0.15 pmol/ml/μg prt | 1 ± 0.15 pmol/ml/μg prt | 0 pmol/ml/μg prt | 0 pmol/ml/μg prt | 100% | 30 min | 100% | 30 min | 76% | – | – | – | – | –
2 | CCc1cc(OC)ccc1-c1ccc(CC(NC(=O)[C@H](CC(=O)O)NC(=O)[C@H](CO)NC(=O)[C@@H](NC(=O)[C@H](Cc2ccccc2)NC(=O)[C@@H](NC(=O)CNC(=O)[C@H](CCC(N)=O)NC(=O)C(C)(C)NC(=O)[C@@H](N)Cc2c[nH]cn2)[C@@H](C)O)[C@@H](C)O)C(=O)NC(CCCc2ccc(C(F)(F)F)cc2F)C(N)=O)cc1 (some centres unmarked) [compound 65] (H-H[Aib]QGTFTSD[ξBip(2'-Et-4'-OMe)][X1]-NH2) | 80% | 60 min | – | 78% | 10 ± 0.12 pmol/ml/μg prt | 8 ± 0.02 pmol/ml/μg prt | 6 ± 0.04 pmol/ml/μg prt | 4 ± 0.05 pmol/ml/μg prt | 1 ± 0.02 pmol/ml/μg prt | 43% | – | 14% | – | 76% | 480 min | (6) h | (8) h | 540 min | –
3 | CCc1cc(OC)ccc1-c1ccc(CC(NC(=O)[C@H](CC(=O)O)NC(=O)[C@H](CO)NC(=O)[C@@H](NC(=O)C(C)(Cc2ccccc2F)NC(=O)[C@@H](NC(=O)CNC(=O)[C@H](CC(C(F)(F)F)C(F)(F)F)NC(=O)C(C)(C)NC(=O)[C@H](Cc2c[nH]cn2)NC(C)=O)[C@@H](C)O)[C@@H](C)O)C(=O)NC(CCCc2ccccc2F)C(N)=O)cc1 (some centres unmarked) [compound 212] (Ac-H[Aib][Leu(5,5,5,5',5',5'-F6)]GT[ξαMePhe(2-F)]TSD[ξBip(2'-Et-4'-OMe)][ξbishPhe(2-F)]-NH2) | 100% | 30 min | (9) h | 80% | 10 ± 0.12 pmol/ml/μg prt | 8 ± 0.02 pmol/ml/μg prt | 6 ± 0.04 pmol/ml/μg prt | 4 ± 0.05 pmol/ml/μg prt | 1 ± 0.02 pmol/ml/μg prt | 100% | 30 min | 100% | 30 min | 77% | – | – | – | – | –
4 | CCc1cc(OC)ccc1-c1ccc(CC(NC(=O)[C@H](CC(=O)O)NC(=O)[C@H](CO)NC(=O)[C@@H](NC(=O)C(C)(Cc2ccccc2F)NC(=O)[C@@H](NC(=O)CNC(=O)[C@H](CC(C(F)(F)F)C(F)(F)F)NC(=O)C(C)(C)NC(=O)[C@@H](N)Cc2c[nH]cn2)[C@H](C)O)[C@H](C)O)C(=O)NC(CCCc2ccccc2F)C(N)=O)cc1 (some centres unmarked) [compound 229] | 100% | 30 min | (9) h | 71% | – | – | – | – | – | 100% | 30 min | 100% | 30 min | 70% | – | – | – | – | –
5 | CCc1cc(OC)ccc1-c1ccc(CC(NC(=O)[C@H](CC(=O)O)NC(=O)[C@H](CO)NC(=O)[C@@H](NC(=O)C(C)(Cc2ccccc2F)NC(=O)[C@@H](NC(=O)CNC(=O)[C@H](CC(C(F)(F)F)C(F)(F)F)NC(=O)C(C)(C)NC(=O)[C@@H](N)Cc2c[nH]cn2)[C@@H](C)O)[C@@H](C)O)C(=O)NC(CCCc2ccccc2)C(N)=O)cc1 (some centres unmarked) [compound 234] | 100% | 30 min | (9) h | 70% | – | – | – | – | – | 100% | 30 min | 100% | 30 min | 72% | – | – | – | – | –
6 | CCc1cc(OC)ccc1-c1ccc(CC(NC(=O)[C@H](CC(=O)O)NC(=O)[C@H](CO)NC(=O)[C@@H](NC(=O)C(C)(Cc2ccccc2F)NC(=O)[C@@H](NC(=O)CNC(=O)[C@H](CC(C(F)(F)F)C(F)(F)F)NC(=O)C(C)(C)NC(=O)[C@@H](N)Cc2c[nH]cn2)[C@@H](C)O)[C@@H](C)O)C(=O)NC(CCCc2cccc(Cl)c2)C(N)=O)cc1 (some centres unmarked) [compound 236] (H-H[Aib][Leu(5,5,5,5',5',5'-F6)]GT[ξαMePhe(2-F)]TSD[ξBip(2'-Et-4'-OMe)][ξNva(5-(3-Cl-Ph))]-NH2) | 35% | – | – | 00% | – | – | – | – | – | 00% | > 1440 min | 00% | > 1440 min | 00% | > 1440 min | – | – | > 1440 min | (5) h
